Three molecules from patent publication US20080113907A1, “Uses Of Galectin-2” (Charite-Universitat-Smedizin Berlin, priority 2004, published 2008) can be followed below.

The chains are these.
B1: CD7 (receptor, human, UniProt P09564 26-240, looked up)
chain: AQEVQQSPHCTTVPVGASVNITCSTSGGLRGIYLRQLGPQPQDIIYYEDGVVPTTDRRFRGRIDFSGSQDNLTITMHRLQLSDTGTYTCQAITEVNVYGSGTLVLVTEEQSQGWHRCSDAPPRASALPAPPTGSALPDPQTASALPDPPAASALPAALAVISFLLGLGLGVACVLARTQIKKLCSWRDKNSAACVVYEDMSHSRCNTLSSPNQYQ
notes: whole, on cells

Assay [1] concerns T cells (PBT, LPT). The experiment in a line: Integrin accessibility on T cell surface (flow cytometry). The note with it: CD3 activated PBT. Type of assay: cell-based, human. The method, then:
For surface staining, cells were washed twice in ice-cold PBS and 1×10^6 cells were resuspended in flow buffer (HBSS containing 1% BSA and 0.1% sodium azide). Cells were incubated with the respective mAb at predetermined saturating concentrations or with isotype-matched nonspecific mouse mAb (DAKO) for 30 min at 4° C., washed twice with flow buffer, and incubated with FITC-conjugated goat anti-mouse IgG for 30 min at 4° C. The cells were again washed twice with flow buffer, fixed in 1% paraformaldehyde and analyzed by a single laser flow cytometer (FacsCalibur, […]), using Cell Quest software (BD Pharmingen). Cells stained with a negative control Ab were gated to contain <2% positive cells. To perform analysis of intracellular proteins, cells were washed twice with PBS, adjusted to 1×10^6 cells per sample, and fixed in 90% methanol at −20° C. After fixation, cells were washed twice with PBS and incubated with a monoclonal mouse anti-bax, Bcl-2, Rb, Cyclin A, p21, p27, or p53 antibody for 45 minutes at 4° C., followed by an incubation with a goat anti-mouse FITC-conjugated mAb (Biosource) for 45 minutes at 4° C. Thereafter cells were washed and analyzed by flow cytometry as described above. The background level of immunofluorescence was determined by incubating cells with FITC-conjugated mouse IgG (isotype control).
(A flow cytometer gives signals particle by particle.)

The test system of assay [2] is T cells (PBT, LPT). Put plainly: Adhesion assay to collagen type I and fibronectin. In kind it is cell-based, human. The note with it: CD3 activated PBT. Here is the method: 96 well flat-bottom plates were precoated overnight at 4° C. with 12 μg/well fibronectin (Chemicon) in DPBS, 40 μg/well collagen type I (Sigma-Aldrich) in 0.1 M acetic acid, or 3% BSA (Sigma-Aldrich) in DPBS as a control and then washed three times with DPBS. Freshly isolated T cells were fluorescently-labelled with 5 μM calcein-AM (Molecular Probes, Eugene, Oreg.) for 30 min at 37° C. in 5% CO2 at 5×10^6 cells/ml in RPMI. The cells were then washed three times with RPMI containing 5% FCS. Calcein-labelled T cells were resuspended in RPMI and 5×10^5 T cells/well were added to 96-well plates containing purified ECM components or BSA for the indicated times. Saturating concentrations of integrin-blocking mAbs (predetermined by flow cytometry) were preincubated with T cells for 30 min at 37° C. before adding T cells to the wells for the adhesion assay. Nonadherent cells were removed by a standardized washing technique that was developed to minimize background binding, which includes both an orbital and a rocking motion repeated three times with RPMI. Adhesion was quantified with a multiwell fluorescent spectrophotometer (Tecan, Groedig, Austria). For each experimental group the results were expressed as the mean percentage±SD of bound T cells from triplicate wells.

A further assay concerns PBT. The experiment in a line: Analysis of T cell cycling (DNA content, cyclin B1, cell cycle regulators). The following applies: anti-CD3 activated PBT; dropped from 8% (galectin-1) and 7% (galectin-7). In kind it is cell-based, human. Here is the method:
(§1) For immunoblotting cells were washed in PBS, and lysed in cell lysis buffer (1% Triton-X, 0.5% NP-40, 0.1% SDS, 0.5% sodium deoxycholate, 5 mM EDTA, 50 mM and 50 mM protease- and phosphatase-inhibitor cocktail 2, 1 mM PMSF, 100 μg/ml trypsin-chymotrypsin inhibitor, 100 μg/ml chymostatin in PBS). The concentration of proteins in each lysate was measured using the Bio-Rad protein assay (Bio-Rad Laboratories, Hercules, Calif.). Equivalent amounts of protein (10 μg) were fractionated on a 10-20% Tris-glycine gel and electrotransferred to a nitrocellulose membrane (Novex, San Diego, Calif.). Membranes were blocked with 5% milk in 0.1% Tween 20-PBS (Fisher Scientific, Hanover Park, Ill.), followed by incubation for 60 m in at room temperature with the indicated primary antibody. The membranes were washed six times with 0.1% Tween 20-PBS and then incubated for 1 h with the appropriate horseradish peroxidase-conjugated secondary antibody (Santa Cruz Biotechnology), washed, and incubated with the chemiluminescent substrate (Perkin-Elmer, Carlsbad, Calif.) for 5 minutes. The membranes were then exposed to film (Amersham, Arlington Heights, Ill.).
Flow cytometry was performed after staining for DNA content, and cyclin B1, essentially as previously described (21). Briefly, cells were washed twice with PBS, adjusted to 1×10^6 cells/sample and fixed in 90% Methanol at −20° C. After fixation, cells were washed twice with PBS, incubated for 45 min at 4° C. with a cyclin B1-FITC conjugated monoclonal antibody. After the final wash, cells were resupended in PBS and 5 μl of RNase (0.6 μg/ml, 30-60 Kunitz Units, Sigma), incubated at 37° C. for 15 min and the chilled on ice. One hundred and twenty five microliters of PI (200 μg/ml) were added prior to analysis by flow cytometry. Each analysis was performed on at least 25.000 events.

The subject of the next assay is CD3, CD7, β1 integrin. Put plainly: Magnetic separation / co-immunoprecipitation of galectin containing complexes. The note with it: galectin coated beads, immunoblot for CD3, CD7, β1. Type of assay: binding, human. The method, then: as §1, with “Ill.). […]” for “Ill.).”
The target in the next assay is T1, BSA (UniProt P02769 25-607, coupled to tosylactivated magnetic beads).
T1 construct: Negative control for the bead pull-down; also called BSA control
The experiment in a line: pull-down from T cells with BSA-coated magnetic beads, Western blot. For orientation: Immunoblotting shows a protein as a band on a membrane.

The target in the assay “CD7” is B1. Put plainly: pull-down from T cells with Gal-2-coated magnetic beads, Western blot; agrees with antibody blocking in flow cytometry. Here is the method: A) Cells were preincubated with CD3, CD7, and β1 mAb (1:100 dilution) for 1 h at RT and then cultured for additional 24 h in the presence of 5 μg/ml galectin-2 coupled to biotin. Cells were then harvested and binding of galectin-2 to T cells determined by two-color flow cytometry using streptavidin labelled-APC to detect biotinylated sites. B) Galectin-1 coimmunoprecipitates with CD3, CD7 and β1 integrin, whereas galectin-2 coimmunoprecipitate only with integrin β1. Cells were incubated with galectin-1 or -2 coated tosyl-activated beads and subsequently lysed. Bead-bound cell fragments were separated magnetically and immunoblotted for CD3, CD7 or β1. Both graphs are representative for four different experiments yielding similar results.
For separation of galectin-2-associated complexes, 1×10⁸ tosylactivated, supermagnetic, polysterene coated beads (Dynalbeads, Dynal Biotech, Oslo, Norway) were coated either with 350 μg BSA, Galectin-1, Galectin-2, CD7, integrin-β1 or OKT3 overnight at 37° C. using tilt rotation. After incubation, the beads were washed in 0.2 M Tris (pH 8.5 containing 0.1% BSA), and then incubated with 2×10⁶ PBT for 1 h at 37° C. […]

T1 sequence (P02769 25-607 limits assumed): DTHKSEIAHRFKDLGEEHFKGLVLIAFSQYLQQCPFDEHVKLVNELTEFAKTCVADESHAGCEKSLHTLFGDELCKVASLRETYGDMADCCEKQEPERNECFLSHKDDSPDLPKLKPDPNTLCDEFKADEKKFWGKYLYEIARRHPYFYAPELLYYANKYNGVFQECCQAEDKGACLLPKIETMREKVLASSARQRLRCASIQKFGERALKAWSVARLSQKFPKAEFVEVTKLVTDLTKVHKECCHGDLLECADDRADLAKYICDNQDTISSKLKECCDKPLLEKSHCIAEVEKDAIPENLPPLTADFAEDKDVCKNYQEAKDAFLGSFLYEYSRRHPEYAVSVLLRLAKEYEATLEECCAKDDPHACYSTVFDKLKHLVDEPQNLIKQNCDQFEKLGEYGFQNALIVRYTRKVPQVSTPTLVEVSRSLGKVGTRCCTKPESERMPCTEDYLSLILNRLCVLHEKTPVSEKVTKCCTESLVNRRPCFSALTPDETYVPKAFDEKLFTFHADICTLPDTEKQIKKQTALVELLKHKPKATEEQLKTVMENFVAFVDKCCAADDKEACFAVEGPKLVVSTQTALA

Take “galectin-1: prototype β-galactoside binding lectin used for comparison”: the β4 integrin accessibility entry with T cells (PBT, LPT) [1] was “neither galectin-1 nor galectin-2 changed”. In addition, in the assay on T cells (PBT, LPT) [1] (50 μg/ml), the “integrin α5 accessibility” value is listed as “downregulated” and the “integrin β1 accessibility” value is reported as “downregulated”. Besides, in the assay with T cells (PBT, LPT) [1] (second statement), the “integrin a5 accessibility” value was “slightly upregulated”. The “cells adhering to collagen type I” value in the assay with T cells (PBT, LPT) [2] (without galectin 22.1±3.5%) is on record as 9.2±3.5%. Also, the “cells adhering to fibronectin” value in the assay on T cells (PBT, LPT) [2] (without galectin 26.3±5.6%) came to 14.0±4.6%. For the same molecule, the “cyclin B1 expression” value in the assay on PBT was found to be 1%. The glycoproteins co-immunoprecipitated entry in the assay on CD3, CD7, β1 integrin was “coimmunoprecipitates with CD3, CD7 and β1 integrin”.

As to B1, the binding result with BSA was “no binding”.

B2: Galectin-2 (ligand, UniProt P05162 1-132, looked up)
chain: MAGELEVKNMDMKPGSTLKITGSIADGTDGFVINLGQGTDKLNLHFNPRFSESTIVCNSLDGSNWGQEQREDHLCFSPGSEVKFTVTFESDKFKVKLPDGHELTFPNRLGHSHLSYLSVRGGFNMSSFKLKE
modifications: biotinylated (sites not given) in the flow cytometry binding assays; coupled to tosylactivated magnetic beads in the pull-down
notes: The NcoI site gave a Thr(Ser)2Ala substitution: Thr in human, Ser in rat; also called Gal-2; biotinylated Gal-2
With B2, the binding result with CD7 is reported as “no binding”.
